Reference: US20260138959A1, “QUINAZOLINE DERIVATIVE COMPOUND AND USE THEREOF” (VORONOI INC., priority 2021, published 2026)

Legend:
c-KIT V560G/D816V = assay: Proliferation inhibitory activity on Ba/F3 cell (CellTiter-Glo, 72 hours), c-KIT V560G/D816V; type: cell-based; conditions: Mus musculus, BaF3, c-KIT V560G/D816V cells, read-out: Cell (nM) c-KIT V560G/D816V (GI50 class)
Method in brief: (§1)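 Read-out: CellTiter-Glo after 72 h at 37 °C compound exposure, expressed as percent of vehicle-treated cells, GI50 calculated. Engineered Ba/F3 cells (3×10^3/well) received twelve 3-fold serial dilutions, final 0.00005–10 μM.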

c-KIT D814Y = assay: Proliferation inhibitory activity on Ba/F3 cell (CellTiter-Glo, 72 hours), c-KIT D814Y; type: cell-based; conditions: Mus musculus, BaF3, c-KIT D814Y cells, read-out: Cell (nM) c-KIT D814Y (GI50 class)
Procedure: (§2) Ba/F3-TEL-PDGFRα(WT), Ba/F3-TEL-PDGFβ(WT), Ba/F3-c-KIT(D816V) (Kyinno, #KC-0138), c-KIT V560G/D816V, c-KIT D814Y were seeded at 3×10^3/100 μl/well in a clear bottom white 96-well plate. A culture solution containing compounds of 12 concentrations (0.00001-2 mM) serially diluted in 3 folds and the DMSO control group was added at 0.5 μl/well each to a final concentration of 0.00005-10 μM, and then incubated in a CO2 incubator at 37° C. for 72 hours. After 72 hours, the plate treated with the compound was taken out, CellTiter-Glo® Assay (Promega) solution was treated with 100 μl/well, followed by mixing well. After mixing well for about 10 minutes at room temperature, […] was measured using a microplate reader. The data were presented as percentages in proportion to treated cells based on the vehicle, GI50 (nM) values were calculated using GraphPad Prism 8.3.0 (GraphPad software Inc., San Diego).
(§3) The inhibitory activities of Ba/F3 expressing PDGFR-α, PDGFR-β, c-KIT(D816V), c-KIT V560G/D816V, and c-KIT D814Y measured as described above were measured and shown in Table 7 below (A: GI50≤200 nM; B: 200 nM<GI50≤500 nM; C: GI50>500 nM).

Ba/F3-c-KIT(D816V) = assay: Proliferation inhibitory activity on Ba/F3 cell (CellTiter-Glo, 72 hours), c-KIT(D816V); type: cell-based; conditions: Mus musculus, BaF3, read-out: Ba/F3 (nM) c-KIT (D816V) (GI50 class)
Method in brief: as §1

human PDGFR-β(wt) = molecular target: T1, human PDGFR-β(wt) (Homo sapiens, UniProt P09619); assay: Enzyme inhibitory activity, ADP-Glo kinase assay, PDGFR-β(wt); type: biochemical; conditions: read-out: PDGFR-β (IC50 class)
T1 construct: purchased Signalchem P13-11G
Method in brief: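 Purified human kinases incubated with ATP and substrate 1–2 h at 25 °C in 40 mM Tris-HCl pH 7.4, 20 mM MgCl2, BSA, DTT, compound over 12 concentrations (10–0.00005645 μM final). ADP formed quantified by ADP-Glo luminescence; IC50 from inhibition versus DMSO control, reported in bins A–D.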

human PDGFR-α(wt) = molecular target: T2, human PDGFR-α(wt) (Homo sapiens, UniProt P16234); assay: Enzyme inhibitory activity, ADP-Glo kinase assay, PDGFR-α(wt); type: biochemical; conditions: read-out: PDGFR-α (IC50 class)
T2 construct: purchased Signalchem P12-18G
Procedure: In order to evaluate the inhibitory activity of the compounds synthesized according to the above examples on PDGFR-α(wt), PDGFR-β(wt), c-KIT(wt), and c-KIT(D816V) kinases, the following method was performed. The compounds of examples were reacted with purified human PDGFR-α(wt) (Signalchem #P12-18G) enzyme, human PDGFR-β(wt) (Signalchem #P13-11G) enzyme, human c-KIT(wt) (Signalchem #K06-11BG) enzyme, human c-KIT(D816V) (Signalchem #C06-12LG) enzyme, and the enzyme inhibitory abilities were evaluated by the following method.
The reaction buffer was used as a composition of 40 mM Tris-HCl pH7.4, 20 mM MgCl2, 0.5 mg/ml BSA, 50 μM DTT, and the reactions of all the tests were carried out on the reaction buffer. The compound was diluted in 12 steps using a serial dilution method from a 10 mM DMSO stock, and the enzyme activity was measured at a final compound concentration of 10˜0.00005645 μM. During the test, the enzyme activity was confirmed using in vitro ADP-Glo™ kinase assay (Promega) after reacting with the proper concentration of human PDGFR-α(wt) enzyme, human PDGFR-β(wt), human c-KIT(wt) enzyme, and human c-KIT(D816V) enzyme with purified ATP and enzyme substrate at 25° C. for 1˜2 hours. At a ratio of 2:2:1, an enzyme-active reaction solution, an ADP-Glo reaction solution, and an enzyme-active detection solution were reacted to measure the inhibition of the enzyme's activity with luminoscence. Based on the […] of the enzyme activity of the solvent control that was not treated with the compound, the degree of enzyme activity inhibition was calculated according to the treatment concentration of each compound, and the concentration of each compound that inhibits 50% of enzyme activity was determined as IC50 (nM) value and the value was obtained by using GraphPad Prism 8.3.0 (GraphPad software Inc., San Diego) software. (A: IC50≤50 nM; B: 50 nM<IC50≤100 nM; C: 100 nM<IC50≤500 nM; D: IC50>500 nM).

various kinases = assay: Inhibitory activity against various kinases, DiscoverX scanMAX Kinase panel, % control at 1 μM; type: binding
Procedure: The activities of the compounds according to the present disclosure on various enzymes were evaluated. Specifically, it was commissioned DiscoverX to measure enzyme selectivity for the compounds of Examples 3, 9, and 83 above, and the experiment was conducted using a panel for scanMAX™ Kinase analysis. Herein, a solution prepared by dissolving in DMSO at a concentration of 1 μM was used as the drug treated with the enzyme, and the control percentage (% control) was determined by the method of Equation 1 below, and the results are shown in Table 8 below.
Herein, when the calculated percentage value for each enzyme was less than 35%, it was determined to have inhibitory activity for the enzyme. Accordingly, among the series of enzymes tested, the enzymes showing the inhibitory activities of the compounds of the present disclosure are summarized and shown in Table 8 below along with the control percentages thereof. (©): less than 10%; ◯: 10% or more to less than 35%).

Ba/F3-TEL-PDGFβ(WT) = assay: Proliferation inhibitory activity on Ba/F3 cell (CellTiter-Glo, 72 hours), PDGFR-β; type: cell-based; conditions: Mus musculus, BaF3, read-out: Ba/F3 (nM) Tel-PDGFRβ (GI50 class)
Procedure: as §2, §3

Ba/F3-TEL-PDGFRα(WT) = assay: Proliferation inhibitory activity on Ba/F3 cell (CellTiter-Glo, 72 hours), PDGFR-α; type: cell-based; conditions: Mus musculus, BaF3, read-out: Ba/F3 (nM) Tel-PDGFRα (GI50 class)
Procedure: as §2, §3

T1 sequence (P09619 33-1106): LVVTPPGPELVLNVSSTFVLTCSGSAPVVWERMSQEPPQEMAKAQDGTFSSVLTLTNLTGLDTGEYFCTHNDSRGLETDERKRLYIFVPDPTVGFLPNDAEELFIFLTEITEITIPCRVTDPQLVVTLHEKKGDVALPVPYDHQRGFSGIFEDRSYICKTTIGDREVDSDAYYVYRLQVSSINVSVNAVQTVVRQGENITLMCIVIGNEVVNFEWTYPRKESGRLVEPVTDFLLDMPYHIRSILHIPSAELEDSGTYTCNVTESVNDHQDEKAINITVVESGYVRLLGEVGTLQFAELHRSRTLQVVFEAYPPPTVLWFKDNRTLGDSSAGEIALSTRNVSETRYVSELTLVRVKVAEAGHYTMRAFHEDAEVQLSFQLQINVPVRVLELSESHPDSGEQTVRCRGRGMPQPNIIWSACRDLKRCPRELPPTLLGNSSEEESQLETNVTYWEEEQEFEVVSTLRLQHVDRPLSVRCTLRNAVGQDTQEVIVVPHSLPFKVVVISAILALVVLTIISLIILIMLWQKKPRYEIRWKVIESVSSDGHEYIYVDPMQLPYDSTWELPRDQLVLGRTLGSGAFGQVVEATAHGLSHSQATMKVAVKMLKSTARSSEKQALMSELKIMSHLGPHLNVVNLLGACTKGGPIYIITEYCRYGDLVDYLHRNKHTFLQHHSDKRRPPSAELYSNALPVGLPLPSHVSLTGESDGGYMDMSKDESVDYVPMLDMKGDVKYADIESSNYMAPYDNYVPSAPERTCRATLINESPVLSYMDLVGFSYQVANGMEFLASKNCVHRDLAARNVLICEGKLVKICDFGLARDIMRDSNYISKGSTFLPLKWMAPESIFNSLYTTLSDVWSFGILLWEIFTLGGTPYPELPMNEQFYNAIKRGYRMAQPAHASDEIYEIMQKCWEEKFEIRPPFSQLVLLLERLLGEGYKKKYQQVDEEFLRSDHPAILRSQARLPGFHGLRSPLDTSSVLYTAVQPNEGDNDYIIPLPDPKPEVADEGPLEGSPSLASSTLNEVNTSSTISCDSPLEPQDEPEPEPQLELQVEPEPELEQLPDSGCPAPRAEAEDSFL
T2 sequence (P16234 24-1089): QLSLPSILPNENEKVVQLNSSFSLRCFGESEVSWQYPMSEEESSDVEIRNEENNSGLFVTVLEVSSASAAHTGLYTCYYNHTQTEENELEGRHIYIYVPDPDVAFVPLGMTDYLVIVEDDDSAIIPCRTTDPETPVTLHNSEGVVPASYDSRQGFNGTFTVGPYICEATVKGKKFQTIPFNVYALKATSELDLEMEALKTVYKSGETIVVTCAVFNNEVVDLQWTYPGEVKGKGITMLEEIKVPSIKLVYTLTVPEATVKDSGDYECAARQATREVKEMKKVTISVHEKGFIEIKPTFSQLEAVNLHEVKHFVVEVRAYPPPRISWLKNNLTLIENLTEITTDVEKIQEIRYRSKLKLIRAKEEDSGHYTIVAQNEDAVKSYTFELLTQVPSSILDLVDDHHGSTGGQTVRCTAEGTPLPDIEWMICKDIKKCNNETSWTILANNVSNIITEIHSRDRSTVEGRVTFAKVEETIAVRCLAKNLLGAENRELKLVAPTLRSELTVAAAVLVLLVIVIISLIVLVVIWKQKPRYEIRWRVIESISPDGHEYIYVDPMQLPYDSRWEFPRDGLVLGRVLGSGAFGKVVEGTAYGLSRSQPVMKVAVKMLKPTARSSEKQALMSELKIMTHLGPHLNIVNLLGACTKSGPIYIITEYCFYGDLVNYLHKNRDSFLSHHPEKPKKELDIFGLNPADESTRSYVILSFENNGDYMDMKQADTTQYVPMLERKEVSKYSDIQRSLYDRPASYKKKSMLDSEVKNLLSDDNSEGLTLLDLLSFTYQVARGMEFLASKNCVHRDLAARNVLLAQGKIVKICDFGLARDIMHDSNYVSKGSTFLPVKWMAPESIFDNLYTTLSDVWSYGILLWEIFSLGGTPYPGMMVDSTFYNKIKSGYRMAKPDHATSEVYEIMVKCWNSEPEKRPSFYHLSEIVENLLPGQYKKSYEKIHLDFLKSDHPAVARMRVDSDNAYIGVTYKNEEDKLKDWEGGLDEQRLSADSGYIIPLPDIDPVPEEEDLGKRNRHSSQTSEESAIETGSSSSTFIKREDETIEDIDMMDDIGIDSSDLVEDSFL

| GI50 (c-KIT V560G/D816V) [nM] | GI50 (c-KIT D814Y) [nM] | GI50 (Ba/F3-c-KIT(D816V)) [nM] | IC50 (human PDGFR-β(wt)) [nM] | Structure (SMILES) | further results |
| --- | --- | --- | --- | --- | --- |
| ≤ 200 | ≤ 200 | ≤ 200 |  | COc1cc2c(-c3ccc(NC(=O)Cc4ccc(C(F)(F)F)cc4)cc3)ncnc2cc1OCCCN1CC(N(C)C)C1 [Example 22, N-(4-(7-(3-(3-(dimethylamino)azetidine-1-yl)propoxy)-6-methoxyquinazolin-4-yl)phenyl)-2-(4-(trifluoromethyl)phenyl)acetamide] |  |
| ≤ 200 | ≤ 200 | ≤ 200 | ≤ 50 | COc1cc2c(-c3ccc(NC(=O)Cc4ccc(C(F)(F)F)cc4)cc3)ncnc2cc1OCCn1cccn1 [Example 30, N-(4-(7-(2-(1H-pyrazol-1-yl)ethoxy)-6-methoxyquinazolin-4-yl)phenyl)-2-(4-(trifluoromethyl)phenyl)acetamide] |  |
| ≤ 200 | ≤ 200 | ≤ 200 | ≤ 50 | COc1cc2c(-c3ccc(NC(=O)Cc4ccc(C(F)(F)F)cc4)cc3)ncnc2cc1OCCCN1C[C@H]2C[C@@H]1CN2C [Example 31, N-(4-(6-methoxy-7-(3-((1R,4R)-5-methyl-2,5-diazabicyclo[2.2.1]heptane-2-yl)propoxy)quinazolin-4-yl)phenyl)-2-(4-(trifluoromethyl)phenyl)acetamide] |  |
| ≤ 200 | ≤ 200 | ≤ 200 | ≤ 50 | CCN1CC[C@@H](COc2cc3ncnc(-c4ccc(NC(=O)Cc5ccc(C(F)(F)F)cc5)cc4)c3cc2OC)C1 [Example 40, (R)-N-(4-(7-((1-ethylpyrrolidin-3-yl)methoxy)-6-methoxyquinazolin-4-yl)phenyl)-2-(4-(trifluoromethyl)phenyl)acetamide] |  |
| ≤ 200 | ≤ 200 | ≤ 200 | ≤ 50 | COCCN1CCC(COc2cc3ncnc(-c4ccc(NC(=O)Cc5ccc(C(F)(F)F)cc5)cc4)c3cc2OC)CC1 [Example 43, N-(4-(6-methoxy-7-((1-(2-methoxyethyl)piperidin-4-yl)methoxy)quinazolin-4-yl)phenyl)-2-(4-(trifluoromethyl)phenyl)acetamide] |  |
| ≤ 200 |  | ≤ 200 | ≤ 50 | COc1cc2c(-c3ccc(NC(=O)Cc4ccc(C#N)cc4)cc3)ncnc2cc1OCCCN1CCN(C)CC1 [Example 83, 2-(4-cyanophenyl)-N-(4-(6-methoxy-7-(3-(4-methylpiperazin-1-yl)propoxy)quinazolin-4-yl)phenyl)acetamide] | IC50 (human PDGFR-α(wt)): ≤ 50 nM; control percentage (% control), KIT (various kinases; KIT): ⊚; control percentage (% control), KIT (A829P) (various kinases; KIT (A829P)): ⊚; control percentage (% control), KIT (D816H) (various kinases; KIT (D816H)): ⊚; control percentage (% control), KIT (D816V) (various kinases; KIT (D816V)): ⊚; control percentage (% control), KIT (L576P) (various kinases; KIT (L576P)): ⊚; control percentage (% control), KIT (V559D) (various kinases; KIT (V559D)): ⊚; control percentage (% control), KIT (V559D, T670I) (various kinases; KIT (V559D, T670I)): ◯ (◯: 10% or more to less than 35%); control percentage (% control), KIT (V559D, V654A) (various kinases; KIT (V559D, V654A)): ◯ (◯: 10% or more to less than 35%); control percentage (% control), PDGFRA (various kinases; PDGFRA): ⊚; control percentage (% control), PDGFRB (various kinases; PDGFRB): ⊚; GI50 (Ba/F3-TEL-PDGFβ(WT)): ≤ 200 nM; GI50 (Ba/F3-TEL-PDGFRα(WT)): ≤ 200 nM |
| > 500 | > 500 | ≤ 200 |  | COc1cc2ncnc(-c3ccc(NC(=O)Cc4ccc(C(F)(F)F)cc4)cc3)c2cc1O[C@@H]1CCOC1 [Example 125, (R)-N-(4-(7-methoxy-6-((tetrahydrofuran-3-yl)oxy)quinazolin-4-yl)phenyl)-2-(4-(trifluoromethyl)phenyl)acetamide] |  |
| ≤ 200 | ≤ 200 | ≤ 200 |  | COc1cc2ncnc(-c3ccc(NC(=O)Cc4ccc(C(F)(F)F)cc4)cc3)c2cc1OCCCN1CCN(C)CC1 [Example 126, N-(4-(7-methoxy-6-(3-(4-methylpiperazin-1-yl)propoxy)quinazolin-4-yl)phenyl)-2-(4-(trifluoromethyl)phenyl)acetamide] |  |
| 200 to 500 | > 500 | ≤ 200 |  | COc1cc2ncnc(-c3ccc(NC(=O)Cc4ccc(C(F)(F)F)cc4)cc3)c2cc1OCC1CCCNC1 (centres unmarked) [Example 133, N-(4-(7-methoxy-6-(piperidin-3-ylmethoxy)quinazolin-4-yl)phenyl)-2-(4-(trifluoromethyl)phenyl)acetamide] |  |
| ≤ 200 | ≤ 200 | ≤ 200 |  | CCN1CCCC(COc2cc3c(-c4ccc(NC(=O)Cc5ccc(C(F)(F)F)cc5)cc4)ncnc3cc2OC)C1 (centres unmarked) [Example 134, N-(4-(6-((1-ethylpiperidin-3-yl)methoxy)-7-methoxyquinazolin-4-yl)phenyl)-2-(4-(trifluoromethyl)phenyl)acetamide] |  |
| 200 to 500 | ≤ 200 | ≤ 200 |  | COc1cc2ncnc(-c3ccc(NC(=O)Cc4ccc(C(F)(F)F)cc4)cc3)c2cc1OC1CNC1 [Example 138, N-(4-(6-(azetidin-3-yloxy)-7-methoxyquinazolin-4-yl)phenyl)-2-(4-(trifluoromethyl)phenyl)acetamide] |  |
| 200 to 500 | ≤ 200 | ≤ 200 |  | CCN1CC(Oc2cc3c(-c4ccc(NC(=O)Cc5ccc(C(F)(F)F)cc5)cc4)ncnc3cc2OC)C1 [Example 144, N-(4-(6-((1-ethylazetidin-3-yl)oxy)-7-methoxyquinazolin-4-yl)phenyl)-2-(4-(trifluoromethyl)phenyl)acetamide] |  |
| 200 to 500 | ≤ 200 | ≤ 200 |  | CCN1CCC(Oc2cc3c(-c4ccc(NC(=O)Cc5ccc(C(F)(F)F)cc5)cc4)ncnc3cc2OC)C1 (centres unmarked) [Example 145, N-(4-(6-((1-ethylpyrrolidin-3-yl)oxy)-7-methoxyquinazolin-4-yl)phenyl)-2-(4-(trifluoromethyl)phenyl)acetamide] |  |
